From PubChem BioAssay (NCI)
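48-hour exposure; five concentrations; linearly interpolated endpoints. TGI denotes the concentration required for complete inhibition of growth.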

Key:
Assay in all cases: DTP human tumour cell line panel, 48 h
RXF 393 renal = system: RXF 393 renal
COLO 205 colon = system: COLO 205 colon
A498 renal = system: A498 renal
SK-MEL-5 melanoma = system: SK-MEL-5 melanoma
SF-539 CNS = system: SF-539 CNS
SK-MEL-2 melanoma = system: SK-MEL-2 melanoma
KM20L2 colon = system: KM20L2 colon
HCC-2998 colon = system: HCC-2998 colon
DMS 114 small cell lung = system: DMS 114 small cell lung
SNB-75 CNS = system: SNB-75 CNS
TK-10 renal = system: TK-10 renal
HT29 colon = system: HT29 colon
IGROV1 ovarian = system: IGROV1 ovarian
HL-60(TB) leukemia = system: HL-60(TB) leukemia
OVCAR-8 ovarian = system: OVCAR-8 ovarian
DMS 273 small cell lung = system: DMS 273 small cell lung
NCI-H460 lung = system: NCI-H460 lung
CAKI-1 renal = system: CAKI-1 renal
KM12 colon = system: KM12 colon
NCI-H522 lung = system: NCI-H522 lung
OVCAR-3 ovarian = system: OVCAR-3 ovarian
LOX IMVI melanoma = system: LOX IMVI melanoma
HOP-62 NSCLC = system: HOP-62 NSCLC
786-0 renal = system: 786-0 renal
MOLT-4 leukemia = system: MOLT-4 leukemia
HOP-18 NSCLC = system: HOP-18 NSCLC
HOP-92 NSCLC = system: HOP-92 NSCLC
SNB-19 CNS = system: SNB-19 CNS
OVCAR-5 ovarian = system: OVCAR-5 ovarian
K-562 leukemia = system: K-562 leukemia
DLD-1 colon = system: DLD-1 colon
SK-OV-3 ovarian = system: SK-OV-3 ovarian
MALME-3M melanoma = system: MALME-3M melanoma
SN12C renal = system: SN12C renal
RPMI-8226 leukemia = system: RPMI-8226 leukemia
HCT-15 colon = system: HCT-15 colon
U251 CNS = system: U251 CNS
UACC-257 melanoma = system: UACC-257 melanoma
SK-MEL-28 melanoma = system: SK-MEL-28 melanoma
UO-31 renal = system: UO-31 renal
NCI-H23 lung = system: NCI-H23 lung
EKVX NSCLC = system: EKVX NSCLC
SF-268 CNS = system: SF-268 CNS
SW-620 colon = system: SW-620 colon
A549 NSCLC = system: A549 NSCLC
CCRF-CEM leukemia = system: CCRF-CEM leukemia
UACC-62 melanoma = system: UACC-62 melanoma
M19-MEL melanoma = system: M19-MEL melanoma
SNB-78 CNS = system: SNB-78 CNS
SF-295 CNS = system: SF-295 CNS
NCI-H226 lung = system: NCI-H226 lung
LXFL 529 NSCLC = system: LXFL 529 NSCLC
HCT-116 colon = system: HCT-116 colon
M14 melanoma = system: M14 melanoma
XF 498 CNS = system: XF 498 CNS
ACHN renal = system: ACHN renal
OVCAR-4 ovarian = system: OVCAR-4 ovarian
SR leukemia = system: SR leukemia

Molecule `Cc1nc(N)sc1C(=O)/C=C/c1ccc([N+](=O)[O-])cc1` has a TGI (RXF 393 renal) of over 100 µM, a TGI (COLO 205 colon) of over 100 µM and a TGI (A498 renal) of over 100 µM. The TGI (SK-MEL-5 melanoma) was over 100 µM, the TGI (SF-539 CNS) was over 100 µM and the TGI (SK-MEL-2 melanoma) was over 100 µM. The TGI (KM20L2 colon) was over 100 µM, the TGI (HCC-2998 colon) was over 100 µM and the TGI (DMS 114 small cell lung) was over 100 µM. It also gave a TGI (SNB-75 CNS) of over 100 µM, a TGI (TK-10 renal) of over 100 µM and a TGI (HT29 colon) of over 100 µM. The TGI (IGROV1 ovarian) was over 100 µM, the TGI (HL-60(TB) leukemia) was over 100 µM and the TGI (OVCAR-8 ovarian) was over 100 µM. The TGI (DMS 273 small cell lung) was over 100 µM, the TGI (NCI-H460 lung) was over 100 µM and the TGI (CAKI-1 renal) was over 100 µM. For the same molecule, the TGI (KM12 colon) was over 100 µM, the TGI (NCI-H522 lung) was over 100 µM and the TGI (OVCAR-3 ovarian) was over 100 µM. It also gave a TGI (LOX IMVI melanoma) of over 100 µM, a TGI (HOP-62 NSCLC) of over 100 µM and a TGI (786-0 renal) of over 100 µM. It also gave a TGI (MOLT-4 leukemia) of over 100 µM, a TGI (HOP-18 NSCLC) of over 100 µM and a TGI (HOP-92 NSCLC) of over 100 µM. For the same molecule, the TGI (SNB-19 CNS) was over 100 µM, the TGI (OVCAR-5 ovarian) was over 100 µM and the TGI (K-562 leukemia) was over 100 µM. It also gave a TGI (DLD-1 colon) of over 100 µM, a TGI (SK-OV-3 ovarian) of over 100 µM and a TGI (MALME-3M melanoma) of over 100 µM. For the same molecule, the TGI (SN12C renal) was over 100 µM, the TGI (RPMI-8226 leukemia) was over 100 µM and the TGI (HCT-15 colon) was over 100 µM. For the same molecule, the TGI (U251 CNS) was over 100 µM, the TGI (UACC-257 melanoma) was over 100 µM and the TGI (SK-MEL-28 melanoma) was over 100 µM. The TGI (UO-31 renal) was over 100 µM, the TGI (NCI-H23 lung) was over 100 µM and the TGI (EKVX NSCLC) was over 100 µM. The TGI (SF-268 CNS) was over 100 µM, the TGI (SW-620 colon) was over 100 µM and the TGI (A549 NSCLC) was over 100 µM. The TGI (CCRF-CEM leukemia) was over 100 µM, the TGI (UACC-62 melanoma) was over 100 µM and the TGI (M19-MEL melanoma) was over 100 µM. For the same molecule, the TGI (SNB-78 CNS) was over 100 µM and the TGI (SF-295 CNS) was over 100 µM.
Molecule `N#C/C(=C\c1ccc(O)cc1O)C(N)=O` has a TGI (RXF 393 renal) of 83.5 µM, a TGI (COLO 205 colon) of 26.5 µM and a TGI (A498 renal) of over 100 µM. For the same molecule, the TGI (SF-539 CNS) was over 100 µM, the TGI (SK-MEL-2 melanoma) was over 100 µM and the TGI (KM20L2 colon) was over 100 µM. It also gave a TGI (NCI-H226 lung) of over 100 µM, a TGI (HCC-2998 colon) of over 100 µM and a TGI (SNB-75 CNS) of 67.4 µM. The TGI (TK-10 renal) was over 100 µM, the TGI (HT29 colon) was 98.2 µM and the TGI (IGROV1 ovarian) was over 100 µM. For the same molecule, the TGI (HL-60(TB) leukemia) was over 100 µM, the TGI (OVCAR-8 ovarian) was over 100 µM and the TGI (LXFL 529 NSCLC) was over 100 µM. The TGI (DMS 273 small cell lung) was over 100 µM, the TGI (NCI-H460 lung) was over 100 µM and the TGI (CAKI-1 renal) was over 100 µM. It also gave a TGI (KM12 colon) of over 100 µM, a TGI (NCI-H522 lung) of over 100 µM and a TGI (HCT-116 colon) of over 100 µM. For the same molecule, the TGI (OVCAR-3 ovarian) was over 100 µM, the TGI (LOX IMVI melanoma) was over 100 µM and the TGI (HOP-62 NSCLC) was over 100 µM. The TGI (786-0 renal) was over 100 µM, the TGI (MOLT-4 leukemia) was over 100 µM and the TGI (HOP-92 NSCLC) was over 100 µM. For the same molecule, the TGI (SNB-19 CNS) was over 100 µM, the TGI (OVCAR-5 ovarian) was over 100 µM and the TGI (K-562 leukemia) was over 100 µM. The TGI (DLD-1 colon) was over 100 µM, the TGI (SK-OV-3 ovarian) was over 100 µM and the TGI (MALME-3M melanoma) was over 100 µM. It also gave a TGI (SN12C renal) of over 100 µM, a TGI (RPMI-8226 leukemia) of over 100 µM and a TGI (HCT-15 colon) of over 100 µM. For the same molecule, the TGI (U251 CNS) was over 100 µM, the TGI (UACC-257 melanoma) was over 100 µM and the TGI (SK-MEL-28 melanoma) was over 100 µM. For the same molecule, the TGI (UO-31 renal) was over 100 µM, the TGI (NCI-H23 lung) was over 100 µM and the TGI (M14 melanoma) was over 100 µM. It also gave a TGI (EKVX NSCLC) of over 100 µM, a TGI (SF-268 CNS) of over 100 µM and a TGI (SW-620 colon) of over 100 µM. For the same molecule, the TGI (A549 NSCLC) was over 100 µM, the TGI (CCRF-CEM leukemia) was over 100 µM and the TGI (UACC-62 melanoma) was over 100 µM. The TGI (XF 498 CNS) was over 100 µM, the TGI (M19-MEL melanoma) was over 100 µM and the TGI (SNB-78 CNS) was over 100 µM. The TGI (ACHN renal) was over 100 µM, the TGI (OVCAR-4 ovarian) was over 100 µM and the TGI (SF-295 CNS) was over 100 µM.
`CC(C)Cc1cccc(C(C)C)c1NC(=O)CCC(=O)N/N=C1\C(=N/NC(=O)CCC(=O)Nc2c(C(C)C)cccc2C(C)C)C(c2ccc3c(c2)OCO3)Oc2ccccc21` (stereo not drawn) showed a TGI (RXF 393 renal) of over 100 µM, a TGI (COLO 205 colon) of over 100 µM and a TGI (A498 renal) of over 100 µM. The TGI (SK-MEL-5 melanoma) was over 100 µM, the TGI (SF-539 CNS) was over 100 µM and the TGI (SK-MEL-2 melanoma) was over 100 µM. It also gave a TGI (KM20L2 colon) of over 100 µM, a TGI (NCI-H226 lung) of over 100 µM and a TGI (HCC-2998 colon) of over 100 µM. For the same molecule, the TGI (DMS 114 small cell lung) was over 100 µM, the TGI (SNB-75 CNS) was over 100 µM and the TGI (TK-10 renal) was over 100 µM. For the same molecule, the TGI (HT29 colon) was over 100 µM, the TGI (IGROV1 ovarian) was over 100 µM and the TGI (HL-60(TB) leukemia) was over 100 µM. It also gave a TGI (OVCAR-8 ovarian) of over 100 µM, a TGI (LXFL 529 NSCLC) of over 100 µM and a TGI (DMS 273 small cell lung) of over 100 µM. The TGI (NCI-H460 lung) was over 100 µM, the TGI (CAKI-1 renal) was over 100 µM and the TGI (KM12 colon) was over 100 µM. It also gave a TGI (NCI-H522 lung) of over 100 µM, a TGI (HCT-116 colon) of over 100 µM and a TGI (LOX IMVI melanoma) of over 100 µM. For the same molecule, the TGI (HOP-62 NSCLC) was over 100 µM, the TGI (MOLT-4 leukemia) was over 100 µM and the TGI (HOP-92 NSCLC) was over 100 µM. The TGI (SNB-19 CNS) was over 100 µM, the TGI (OVCAR-5 ovarian) was over 100 µM and the TGI (K-562 leukemia) was over 100 µM. The TGI (DLD-1 colon) was over 100 µM, the TGI (SK-OV-3 ovarian) was over 100 µM and the TGI (SN12C renal) was over 100 µM. For the same molecule, the TGI (RPMI-8226 leukemia) was over 100 µM, the TGI (HCT-15 colon) was over 100 µM and the TGI (U251 CNS) was over 100 µM. It also gave a TGI (SR leukemia) of over 100 µM, a TGI (UACC-257 melanoma) of over 100 µM and a TGI (SK-MEL-28 melanoma) of over 100 µM. The TGI (UO-31 renal) was over 100 µM, the TGI (NCI-H23 lung) was over 100 µM and the TGI (M14 melanoma) was over 100 µM. The TGI (EKVX NSCLC) was over 100 µM, the TGI (SF-268 CNS) was over 100 µM and the TGI (SW-620 colon) was over 100 µM. For the same molecule, the TGI (A549 NSCLC) was over 100 µM, the TGI (CCRF-CEM leukemia) was over 100 µM and the TGI (UACC-62 melanoma) was over 100 µM. It also gave a TGI (XF 498 CNS) of over 100 µM, a TGI (M19-MEL melanoma) of over 100 µM and a TGI (SNB-78 CNS) of over 100 µM. The TGI (ACHN renal) was over 100 µM, the TGI (OVCAR-4 ovarian) was over 100 µM and the TGI (SF-295 CNS) was over 100 µM.
